Data reported in ChEMBL document CHEMBL1137557, “Geometry of GPPE binding to picrate and to the urokinase type plasminogen activator” (Bioorg Med Chem Lett, 2007).

Assays:
[1] = target: Tissue-type plasminogen activator (Homo sapiens, UniProt P00750); assay: Inhibition of tPA
[2] = target: Urokinase-type plasminogen activator (Homo sapiens, UniProt P00749); assay: Inhibition of uPA
[3] = target: Trypsin (Homo sapiens, UniProt P07477+P07478+P35030); assay: Inhibition of trypsin; type: protein assay

Sequence of Tissue-type plasminogen activator (P00750 whole entry): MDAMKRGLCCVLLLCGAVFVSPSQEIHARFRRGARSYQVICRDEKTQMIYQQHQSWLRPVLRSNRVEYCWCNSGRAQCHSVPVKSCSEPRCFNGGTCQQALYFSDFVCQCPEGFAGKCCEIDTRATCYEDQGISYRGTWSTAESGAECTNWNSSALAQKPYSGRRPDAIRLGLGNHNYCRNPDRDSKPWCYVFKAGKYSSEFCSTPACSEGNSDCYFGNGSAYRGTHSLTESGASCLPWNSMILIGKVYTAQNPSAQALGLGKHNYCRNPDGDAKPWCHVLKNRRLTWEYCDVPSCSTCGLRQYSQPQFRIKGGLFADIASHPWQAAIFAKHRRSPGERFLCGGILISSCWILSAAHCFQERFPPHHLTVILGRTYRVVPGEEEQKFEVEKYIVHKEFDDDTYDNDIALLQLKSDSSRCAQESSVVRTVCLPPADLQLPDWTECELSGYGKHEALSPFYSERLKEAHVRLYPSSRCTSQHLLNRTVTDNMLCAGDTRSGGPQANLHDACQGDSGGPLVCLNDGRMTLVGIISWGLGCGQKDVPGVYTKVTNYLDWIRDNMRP

What does the source list for `N=C(N)Nc1ccc(CC(=O)c2ccccc2)cc1`?
Ki [1]: > 1000 µM; Ki [2]: 34 µM; Ki [3]: 160 µM
